Measurements as given in patent US9556179B2 (BRISTOL-MYERS SQUIBB COMPANY, priority 2012, dated 2017).

Tests used:
CK1ε = CK1ε (Homo sapiens (Human), UniProt P49674); assay: CK1ε kinase assay (Caliper LABCHIP electrophoretic separation of fluoresceinated peptide substrate and product); type: biochemical; conditions: 200 pM enzyme, 50 μM ATP, 22 hours at room temperature
In short: (§1)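 Compounds, taken from 10 mM DMSO stocks, are titrated at eleven concentrations. Kinase reactions proceed for 22 hours at room temperature and are quenched with EDTA. Substrate and product are resolved electrophoretically, and IC50 values are fitted by non-linear regression.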

CK1δ = CK1δ (Homo sapiens (Human), UniProt P48730); assay: CK1δ kinase assay (Caliper LABCHIP electrophoretic separation of fluoresceinated peptide substrate and product); type: biochemical; conditions: 200 pM enzyme, 50 μM ATP, 22 hours at room temperature
Sequence of CK1δ (P48730 whole entry): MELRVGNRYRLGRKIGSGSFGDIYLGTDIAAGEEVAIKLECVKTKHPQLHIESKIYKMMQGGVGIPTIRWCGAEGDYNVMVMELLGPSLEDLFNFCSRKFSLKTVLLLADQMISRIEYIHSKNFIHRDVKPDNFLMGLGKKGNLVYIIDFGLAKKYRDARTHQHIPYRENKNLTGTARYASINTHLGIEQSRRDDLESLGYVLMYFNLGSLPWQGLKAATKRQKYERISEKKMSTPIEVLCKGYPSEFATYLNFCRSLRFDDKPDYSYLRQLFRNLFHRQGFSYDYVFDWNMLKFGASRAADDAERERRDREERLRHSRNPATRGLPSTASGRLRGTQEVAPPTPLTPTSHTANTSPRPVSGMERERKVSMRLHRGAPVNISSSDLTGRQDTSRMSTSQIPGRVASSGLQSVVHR
In short: as §1

Sequence of CK1ε (P49674 whole entry): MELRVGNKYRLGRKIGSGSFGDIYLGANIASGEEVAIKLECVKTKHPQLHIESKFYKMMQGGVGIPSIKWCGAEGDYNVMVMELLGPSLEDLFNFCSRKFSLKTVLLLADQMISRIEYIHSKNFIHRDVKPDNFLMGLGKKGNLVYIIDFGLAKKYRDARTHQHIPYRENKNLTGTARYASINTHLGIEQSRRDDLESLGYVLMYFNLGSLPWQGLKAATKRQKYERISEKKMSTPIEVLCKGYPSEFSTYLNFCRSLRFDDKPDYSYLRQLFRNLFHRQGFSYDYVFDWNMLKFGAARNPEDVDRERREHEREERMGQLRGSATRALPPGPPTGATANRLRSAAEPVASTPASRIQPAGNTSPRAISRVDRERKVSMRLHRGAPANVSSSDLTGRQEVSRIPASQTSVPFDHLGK

SMILES | IC50 (CK1ε) [nM] | IC50 (CK1δ) [nM]
Cc1nc(-c2ccc(F)cc2)c(-c2ccc3nc(NC(=O)c4sc(-c5cccnc5)nc4C(F)(F)F)cn3n2)n1C [Compound 404, N-(6-(4-(4-Fluorophenyl)-1,2-dimethyl-1H-imidazol-5-yl)imidazo[1,2-b]pyridazin-2-yl)-2-(pyridin-3-yl)-4-(trifluoromethyl)thiazole-5-carboxamide] | 4.21 | 1.04
Cc1nc(-c2ccc(F)cc2)c(-c2ccc3nc(NC(=O)c4sc(-c5ccncc5)nc4C(F)(F)F)cn3n2)n1C [Compound 405, N-(6-(4-(4-Fluorophenyl)-1,2-dimethyl-1H-imidazol-5-yl)imidazo[1,2-b]pyridazin-2-yl)-2-(pyridin-4-yl)-4-(trifluoromethyl)thiazole-5-carboxamide] | 4.21 | 1.04
Cc1nc(-c2ccc(F)cc2)c(-c2ccc3nc(NC(=O)c4cncc(-c5ccc(F)nc5)c4)cn3n2)n1C [Compound 406, 6′-Fluoro-N-(6-(4-(4-fluorophenyl)-1,2-dimethyl-1H-imidazol-5-yl)imidazo[1,2-b]pyridazin-2-yl)-[3,3′-bipyridine]-5-carboxamide] | 2.94 | 0.349
Cc1nc(-c2ccc(F)cc2)c(-c2ccc3nc(NC(=O)N(C)c4ccccc4)cn3n2)n1C [Compound 407, 3-(6-(4-(4-Fluorophenyl)-1,2-dimethyl-1H-imidazol-5-yl)imidazo[1,2-b]pyridazin-2-yl)-1-methyl-1-phenylurea] | 59.8 | 34.9
Cc1nc(-c2ccc(F)cc2)c(-c2ccc3nc(NC(=O)Nc4ccc(C#N)cc4)cn3n2)n1C [Compound 408, 1-(4-cyanophenyl)-3-(6-(4-(4-fluorophenyl)-1,2-dimethyl-1H-imidazol-5-yl)imidazo[1,2-b]pyridazin-2-yl)urea] | 296 | 12.9
Cc1nc(-c2ccc(F)cc2)c(-c2ccc3nc(NC(=O)N4CCCC4)cn3n2)n1C [Compound 409, N-(6-(4-(4-fluorophenyl)-1,2-dimethyl-1H-imidazol-5-yl)imidazo[1,2-b]pyridazin-2-yl)pyrrolidine-1-carboxamide] | 30.8 | 58
Cc1nc(-c2ccc(F)cc2)c(-c2ccc3nc(NC(=O)Nc4cccc(C#N)c4)cn3n2)n1C [Compound 410, 1-(3-cyanophenyl)-3-(6-(4-(4-fluorophenyl)-1,2-dimethyl-1H-imidazol-5-yl)imidazo[1,2-b]pyridazin-2-yl)urea] | 151 | 7.57
Cc1nc(-c2ccc(F)cc2)c(-c2ccc3nc(NC(=O)c4ccnc(F)c4)c(Br)n3n2)n1C [Compound 411, N-(3-Bromo-6-(4-(4-fluorophenyl)-1,2-dimethyl-1H-imidazol-5-yl)imidazo[1,2-b]pyridazin-2-yl)-2-fluoroisonicotinamide] | 19.4 | 1.61
Cc1nc(-c2ccc(F)cc2)c(-c2ccc3nc(NC(=O)c4ccnc(F)c4)c(Cl)n3n2)n1C [Compound 412, N-(3-Chloro-6-(4-(4-fluorophenyl)-1,2-dimethyl-1H-imidazol-5-yl)imidazo[1,2-b]pyridazin-2-yl)-2-fluoroisonicotinamide] | 26.6 | 2.25
Cc1nc(-c2ccc(F)cc2)c(-c2ccc3nc(NC(=O)c4ccnc(F)c4)c(C)n3n2)n1C [Compound 413, 2-Fluoro-N-(6-(4-(4-fluorophenyl)-1,2-dimethyl-1H-imidazol-5-yl)-3-methylimidazo[1,2-b]pyridazin-2-yl)isonicotinamide] | 19.6 | 1.14
Cc1nc(-c2ccc(F)cc2)c(-c2ccc3nc(NC(=O)C(C)(C)C)cn3n2)n1C [Compound 414, N-(6-(4-(4-Fluorophenyl)-1,2-dimethyl-1H-imidazol-5-yl)imidazo[1,2-b]pyridazin-2-yl)pivalamide] | 4.35 | 0.438
O=C(Nc1cn2nc(-c3c(-c4ccc(F)cc4)ncn3CC(F)F)ccc2n1)c1cnc(-c2ccncc2)s1 [Compound 415, N-(6-(1-(2,2-Difluoroethyl)-4-(4-fluorophenyl)-1H-imidazol-5-yl)imidazo[1,2-b]pyridazin-2-yl)-2-(pyridin-4-yl)thiazole-5-carboxamide] | 8.71 | 1.21
O=C(Nc1cn2nc(-c3c(-c4ccc(F)cc4)ncn3-c3ccc(F)cc3)ccc2n1)c1ccnc(F)c1 [Compound 416, N-(6-(1,4-bis(4-Fluorophenyl)-1H-imidazol-5-yl)imidazo[1,2-b]pyridazin-2-yl)-2-fluoroisonicotinamide] | 57.4 | 2.5
O=C(Nc1cn2nc(-c3c(-c4ccc(F)cc4)ncn3-c3ccc(F)cc3)ccc2n1)c1cc(F)nc(F)c1 [Compound 418, N-(6-(1,4-bis(4-Fluorophenyl)-1H-imidazol-5-yl)imidazo[1,2-b]pyridazin-2-yl)-2,6-difluoroisonicotinamide] | 79.2 | 6.4
O=C(Nc1cn2nc(-c3c(-c4ccc(F)cc4)ncn3-c3ccc(F)cc3)ccc2n1)c1ccnc(N2CCOCC2)c1 [Compound 419, N-(6-(1,4-bis(4-Fluorophenyl)-1H-imidazol-5-yl)imidazo[1,2-b]pyridazin-2-yl)-2-morpholinoisonicotinamide] | 35.2 | 3.1

Results, then the compound that gave them:

IC50 (CK1ε) [nM] | IC50 (CK1δ) [nM] | SMILES
18.5 | 3.6 | O=C(Nc1cn2nc(-c3c(-c4ccc(F)cc4)ncn3-c3ccc(F)cc3)ccc2n1)c1cccc(-c2cccnc2)c1 [Compound 420, N-(6-(1,4-bis(4-Fluorophenyl)-1H-imidazol-5-yl)imidazo[1,2-b]pyridazin-2-yl)-3-(pyridin-3-yl)benzamide]
18 | 1.1 | O=C(Nc1cn2nc(-c3c(-c4ccc(F)cc4)ncn3-c3cccnc3)ccc2n1)c1cc(F)nc(F)c1 [Compound 423, 2,6-Difluoro-N-(6-(4-(4-fluorophenyl)-1-(pyridin-3-yl)-1H-imidazol-5-yl)imidazo[1,2-b]pyridazin-2-yl)isonicotinamide]
13.6 | 1 | O=C(Nc1cn2nc(-c3c(-c4ccc(F)cc4)ncn3-c3cccnc3)ccc2n1)c1ccnc(N2CCOCC2)c1 [Compound 424, N-(6-(4-(4-Fluorophenyl)-1-(pyridin-3-yl)-1H-imidazol-5-yl)imidazo[1,2-b]pyridazin-2-yl)-2-morpholinoisonicotinamide]
11 | 1.1 | O=C(Nc1cn2nc(-c3c(-c4ccc(F)cc4)ncn3-c3cccnc3)ccc2n1)c1cccc(-c2cccnc2)c1 [Compound 425, N-(6-(4-(4-Fluorophenyl)-1-(pyridin-3-yl)-1H-imidazol-5-yl)imidazo[1,2-b]pyridazin-2-yl)-3-(pyridin-3-yl)benzamide]
10.4 | 0.9 | O=C(Nc1cn2nc(-c3c(-c4ccc(F)cc4)ncn3C3CC3)ccc2n1)c1ccnc(F)c1 [Compound 426, N-(6-(1-Cyclopropyl-4-(4-fluorophenyl)-1H-imidazol-5-yl)imidazo[1,2-b]pyridazin-2-yl)-2-fluoroisonicotinamide]
6.5 | 0.7 | O=C(Nc1cn2nc(-c3c(-c4ccc(F)cc4)ncn3C3CC3)ccc2n1)c1ccncc1 [Compound 427, N-(6-(1-Cyclopropyl-4-(4-fluorophenyl)-1H-imidazol-5-yl)imidazo[1,2-b]pyridazin-2-yl)isonicotinamide]
9.1 | 0.9 | O=C(Nc1cn2nc(-c3c(-c4ccc(F)cc4)ncn3C3CC3)ccc2n1)c1ccnc(N2CCOCC2)c1 [Compound 428, N-(6-(1-Cyclopropyl-4-(4-fluorophenyl)-1H-imidazol-5-yl)imidazo[1,2-b]pyridazin-2-yl)-2-morpholinoisonicotinamide]
1.2 | 0.2 | O=C(Nc1cn2nc(-c3c(-c4ccc(F)cc4)ncn3C3CCOCC3)ccc2n1)c1cc(F)nc(F)c1 [Compound 433, 2,6-Difluoro-N-(6-(4-(4-fluorophenyl)-1-(tetrahydro-2H-pyran-4-yl)-1H-imidazol-5-yl)imidazo[1,2-b]pyridazin-2-yl)isonicotinamide]
1.8 | 0.3 | O=C(Nc1cn2nc(-c3c(-c4ccc(F)cc4)ncn3C3CCOCC3)ccc2n1)c1ccncc1 [Compound 434, N-(6-(4-(4-Fluorophenyl)-1-(tetrahydro-2H-pyran-4-yl)-1H-imidazol-5-yl)imidazo[1,2-b]pyridazin-2-yl)isonicotinamide]
2 | 0.4 | O=C(Nc1cn2nc(-c3c(-c4ccc(F)cc4)nc4n3CCC4)ccc2n1)c1ccnc(F)c1 [Compound 436, 2-Fluoro-N-(6-(2-(4-fluorophenyl)-6,7-dihydro-5H-pyrrolo[1,2-a]imidazol-3-yl)imidazo[1,2-b]pyridazin-2-yl)isonicotinamide]
2.1 | 0.3 | O=C(Nc1cn2nc(-c3c(-c4ccc(F)cc4)nc4n3CCC4)ccc2n1)c1ccncc1 [Compound 438, N-(6-(2-(4-Fluorophenyl)-6,7-dihydro-5H-pyrrolo[1,2-a]imidazol-3-yl)imidazo[1,2-b]pyridazin-2-yl)isonicotinamide]
3.3 | 1.3 | O=C(Nc1cn2nc(-c3c(-c4ccc(F)cc4)nc4n3CCC4)ccc2n1)c1ccnc(N2CCOCC2)c1 [Compound 439, N-(6-(2-(4-Fluorophenyl)-6,7-dihydro-5H-pyrrolo[1,2-a]imidazol-3-yl)imidazo[1,2-b]pyridazin-2-yl)-2-morpholinoisonicotinamide]
1.3 | 0.4 | O=C(Nc1cn2nc(-c3c(-c4ccc(F)cc4)nc4n3CCC4)ccc2n1)c1cccc(-c2cccnc2)c1 [Compound 440, N-(6-(2-(4-Fluorophenyl)-6,7-dihydro-5H-pyrrolo[1,2-a]imidazol-3-yl)imidazo[1,2-b]pyridazin-2-yl)-3-(pyridin-3-yl)benzamide]
5.4 | 0.8 | O=C(Nc1cn2nc(-c3c(-c4ccc(F)cc4)nc4n3CCCC4)ccc2n1)c1ccnc(F)c1 [Compound 441, 2-Fluoro-N-(6-(2-(4-fluorophenyl)-5,6,7,8-tetrahydroimidazo[1,2-a]pyridin-3-yl)imidazo[1,2-b]pyridazin-2-yl)isonicotinamide]
